The text below walks through data of paper PMC8344022, “Small-molecule inhibitor of AF9/ENL-DOT1L/AF4/AFF4 interactions suppresses malignant gene expression and tumor growth” (Theranostics, 2021).

Values joined by “and” are separate entries in the source; they are usually repeats but may differ in a detail not shown here. Equal values may be shown once. Some results are limits rather than exact numbers.

One assay has as its target T1, AF9-AF4 interaction (Homo sapiens, UniProt P42568).
T1 construct: cDNA for human AF9 AHD domain (475-568) and ENL AHD domain (489-559) was synthesized; made in house; host or cells: E. coli BL21(DE3)
As to the kind of experiment: Alpha assay, AF9-AF4 interaction. The conditions noted are these: read-out: IC50, inhibition of AF9-AF4 interaction. It is filed as binding. The procedure:
(§1) ENL is also a major MLL fusion partner (~10%). The AHD domains of human ENL and AF9 share a high homology with 82% identity and 89% similarity (Figure S1A). […] Our attempts to develop an Alpha assay for ENL-DOT1L failed. […] Compound 1's activity against ENL-DOT1L was therefore not determined.
(§2) Alpha assays. Alpha assays were developed using Perkin-Elmer AlphaLisa anti-MBP kit, which contains streptavidin donor beads and anti-MBP acceptor beads. The assay was performed using a MBP-protein (5 nM), a biotinylated peptide (40 nM), and increasing concentrations of a compound in 25 µL buffer (PBS with 0.5 % BSA, pH 7.5) in 384-well plates according to the manufacturer's protocol and measured with a Tecan SPARK microplate reader. Data were imported into Prism (version 5.0), and IC50 values from 3 independent experiments with standard deviation were obtained by using a standard dose-response curve fitting.

In another assay the target is T2, ENL-AF4 interaction (Homo sapiens, UniProt Q03111).
T2 construct: ENL AHD domain (489-559) was synthesized (by Genscript) and inserted into the pMAL c5X expression plasmid; made in house; host or cells: E. coli BL21(DE3)
As to the kind of experiment: Alpha assay, ENL-AF4 interaction. The conditions noted are these: read-out: IC50, inhibition of ENL-AF4 interaction. It is filed as binding. The protocol:
as §1, §2

For another assay, the target named is T3, ENL-AFF4 interaction (Homo sapiens, UniProt Q03111).
T3 construct: ENL AHD domain (489-559) was synthesized (by Genscript) and inserted into the pMAL c5X expression plasmid; made in house; host or cells: E. coli BL21(DE3)
As to the kind of experiment: Alpha assay, ENL-AFF4 interaction. It is filed as binding. The conditions noted are these: read-out: IC50, inhibition of ENL-AFF4 interaction. The procedure: as §1, §2

The next assay has as its target p300 (Homo sapiens, UniProt Q09472). As to the kind of experiment: p300 histone acetyltransferase inhibition. The conditions noted are these: at 100 µM (Figure S3: 30 or 100 µM). It is filed as biochemical. The procedure: Inhibition of DOT1L, LSD1 and p300 was performed using our previously reported methods, [37], [38].
LSD1, and p300 histone acetyltransferase at 30 or 100 µM, using our previous reported methods [Ref. 36, 37,
(§3) (1 picture or pasted object on this page, not shown here)

In a further assay the test system is HL60 cells. As to the kind of experiment: Antiproliferation assay (XTT). The settings on record: Homo sapiens, HL-60, 168 h, 7-day incubation, read-out: Cytotoxicity EC50. It is filed as cell-based. The protocol:
(§4) Antiproliferation assay. Proliferation inhibition assays for suspension blood cancer cells were performed using an XTT assay kit (Roche). Proliferation inhibition assays for solid tumor cell lines MCF-7, MDA-MB-231, Panc1, Panc28 were performed using an MTT assay (Sigma). The antiproliferation EC50 values were determined using Prism 5 and the reported results were the mean values of at least three independent experiments. The incubation time for compound 1 was 7 days and that for EPZ4777 was 14 days.
A general note: Tetrazolium dyes change colour on reduction, which living cells bring about.

For the next assay, the system named is Jurkat cells. As to the kind of experiment: Antiproliferation assay (XTT). The conditions noted are these: Homo sapiens, 168 h, 7-day incubation, read-out: Cytotoxicity EC50. It is filed as cell-based. The procedure:
as §4

For a further assay, the system named is Kasumi-1 cells. As to the kind of experiment: Antiproliferation assay (XTT). It is filed as cell-based. The settings on record: Homo sapiens, 168 h, 7-day incubation, read-out: Cytotoxicity EC50. The procedure:
as §4

For the next assay, the system named is MV4;11 cells. The assay can be described thus: Antiproliferation assay (XTT). It is filed as cell-based. The conditions noted are these: Homo sapiens, 168 h, 7-day incubation, read-out: Cytotoxicity EC50. The procedure:
as §4

The subject of a further assay is Molm-13 cells. As to the kind of experiment: Antiproliferation assay (XTT). It is filed as cell-based. The protocol: as §4
The next assay has as its system RPMI-8226 cells. The assay can be described thus: Antiproliferation assay (XTT). It is filed as cell-based. The conditions noted are these: Homo sapiens, 168 h, 7-day incubation, read-out: Cytotoxicity EC50. The protocol:
as §4

For another assay, the system named is THP-1 cells. The assay can be described thus: Antiproliferation assay (XTT). The settings on record: Homo sapiens, 168 h, 7-day incubation, read-out: Cytotoxicity EC50. It is filed as cell-based. The protocol: as §4
The next assay deals with U266 cells. The assay can be described thus: Antiproliferation assay (XTT). It is filed as cell-based. The conditions noted are these: Homo sapiens, U-266, 168 h, 7-day incubation, read-out: Cytotoxicity EC50. The procedure: as §4
The subject of assay [1] is MLL-AF9-bound DOT1L and AF4 in Molm-13 cells. The assay can be described thus: Co-immunoprecipitation with N-terminal MLL antibody. It is filed as cell-based. The conditions noted are these: 2 days. The protocol:
Next, we investigated how compound 1 affects these transcription cofactors in the nucleus, where they regulate gene expression. […] DOT1L inhibitor EPZ4777 [25] reduced the methylation levels of H3K79, but not other proteins (Figure 3B). […] In this regard, despite lack of activity against DOT1L, compound 1 can mimic EPZ4777 to reduce H3K79 methylation.
Co-immunoprecipitation. 10^8 Molm-13 cells were treated with a compound or DMSO for 48 hr. Co-immunoprecipitation of the nuclear protein extracts (450 µg of total protein from 10^8 molm-13 cells) was performed using a Nuclear Complex Co-IP Kit (#54001, Active Motif). Briefly, 3 µg of MLL-N Rabbit mAb (#14689, Cell signaling) and 100 µL Protein G Agarose Beads (#37478, Cell signaling) were added and incubated with the nuclear extractions overnight at 4 °C. The Agarose beads with captured antibody and relevant protein complexes were isolated, washed and subjected to Western blot for protein detection.

For assay [2], the system named is cytoplasmic protein levels in MV4;11 cells. As to the kind of experiment: Western blot of cytoplasmic proteins. It is filed as cell-based. The conditions noted are these: 3 days, except for ENL at 15 µM. The procedure: (§5) Figure S4. The cytoplasmic protein levels after treatment with Cpd-1 for 3 days. (A) In contrast to the protein
(§6) me2, ENL and AFF4 in MV4;11 cells, except for ENL at 15 µM.
as §3

Assay [3] relates to cytoplasmic protein levels in Molm-13 cells. As to the kind of experiment: Western blot of cytoplasmic proteins. It is filed as cell-based. The conditions noted are these: 3 days. The protocol: as §5, §6, §3
(In general: Immunoblotting shows a protein as a band on a membrane.)

For the next assay, the system named is MLL-r leukemia cells. As to the kind of experiment: Cytospin/Wright-Giemsa staining. It is filed as cell-based. The conditions noted are these: 5 μM for 5 days. The protocol: Cytospin/Wrigth-Giemsa staining. The MV4;11 and Molm-13 cells were plated in 6-well plates (2.5 mL/well) at an initial concentration of 10^5 cells/mL and treated with a compound or DMSO at 37 °C in a 5% CO2 incubator for 5 days. Cytospins were performed to smear cells (100 µL, 10^6 cells/mL) on slide. After air dry, the slides were Wright's-Giemsa stained and air-dried for over 30 mins before examination.

T2 sequence (Q03111 489-559): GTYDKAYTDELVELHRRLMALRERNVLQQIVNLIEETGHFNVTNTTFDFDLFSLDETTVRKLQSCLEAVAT
T3 sequence (Q03111 489-559): as above
Sequence of p300 (Q09472 whole entry, species assumed): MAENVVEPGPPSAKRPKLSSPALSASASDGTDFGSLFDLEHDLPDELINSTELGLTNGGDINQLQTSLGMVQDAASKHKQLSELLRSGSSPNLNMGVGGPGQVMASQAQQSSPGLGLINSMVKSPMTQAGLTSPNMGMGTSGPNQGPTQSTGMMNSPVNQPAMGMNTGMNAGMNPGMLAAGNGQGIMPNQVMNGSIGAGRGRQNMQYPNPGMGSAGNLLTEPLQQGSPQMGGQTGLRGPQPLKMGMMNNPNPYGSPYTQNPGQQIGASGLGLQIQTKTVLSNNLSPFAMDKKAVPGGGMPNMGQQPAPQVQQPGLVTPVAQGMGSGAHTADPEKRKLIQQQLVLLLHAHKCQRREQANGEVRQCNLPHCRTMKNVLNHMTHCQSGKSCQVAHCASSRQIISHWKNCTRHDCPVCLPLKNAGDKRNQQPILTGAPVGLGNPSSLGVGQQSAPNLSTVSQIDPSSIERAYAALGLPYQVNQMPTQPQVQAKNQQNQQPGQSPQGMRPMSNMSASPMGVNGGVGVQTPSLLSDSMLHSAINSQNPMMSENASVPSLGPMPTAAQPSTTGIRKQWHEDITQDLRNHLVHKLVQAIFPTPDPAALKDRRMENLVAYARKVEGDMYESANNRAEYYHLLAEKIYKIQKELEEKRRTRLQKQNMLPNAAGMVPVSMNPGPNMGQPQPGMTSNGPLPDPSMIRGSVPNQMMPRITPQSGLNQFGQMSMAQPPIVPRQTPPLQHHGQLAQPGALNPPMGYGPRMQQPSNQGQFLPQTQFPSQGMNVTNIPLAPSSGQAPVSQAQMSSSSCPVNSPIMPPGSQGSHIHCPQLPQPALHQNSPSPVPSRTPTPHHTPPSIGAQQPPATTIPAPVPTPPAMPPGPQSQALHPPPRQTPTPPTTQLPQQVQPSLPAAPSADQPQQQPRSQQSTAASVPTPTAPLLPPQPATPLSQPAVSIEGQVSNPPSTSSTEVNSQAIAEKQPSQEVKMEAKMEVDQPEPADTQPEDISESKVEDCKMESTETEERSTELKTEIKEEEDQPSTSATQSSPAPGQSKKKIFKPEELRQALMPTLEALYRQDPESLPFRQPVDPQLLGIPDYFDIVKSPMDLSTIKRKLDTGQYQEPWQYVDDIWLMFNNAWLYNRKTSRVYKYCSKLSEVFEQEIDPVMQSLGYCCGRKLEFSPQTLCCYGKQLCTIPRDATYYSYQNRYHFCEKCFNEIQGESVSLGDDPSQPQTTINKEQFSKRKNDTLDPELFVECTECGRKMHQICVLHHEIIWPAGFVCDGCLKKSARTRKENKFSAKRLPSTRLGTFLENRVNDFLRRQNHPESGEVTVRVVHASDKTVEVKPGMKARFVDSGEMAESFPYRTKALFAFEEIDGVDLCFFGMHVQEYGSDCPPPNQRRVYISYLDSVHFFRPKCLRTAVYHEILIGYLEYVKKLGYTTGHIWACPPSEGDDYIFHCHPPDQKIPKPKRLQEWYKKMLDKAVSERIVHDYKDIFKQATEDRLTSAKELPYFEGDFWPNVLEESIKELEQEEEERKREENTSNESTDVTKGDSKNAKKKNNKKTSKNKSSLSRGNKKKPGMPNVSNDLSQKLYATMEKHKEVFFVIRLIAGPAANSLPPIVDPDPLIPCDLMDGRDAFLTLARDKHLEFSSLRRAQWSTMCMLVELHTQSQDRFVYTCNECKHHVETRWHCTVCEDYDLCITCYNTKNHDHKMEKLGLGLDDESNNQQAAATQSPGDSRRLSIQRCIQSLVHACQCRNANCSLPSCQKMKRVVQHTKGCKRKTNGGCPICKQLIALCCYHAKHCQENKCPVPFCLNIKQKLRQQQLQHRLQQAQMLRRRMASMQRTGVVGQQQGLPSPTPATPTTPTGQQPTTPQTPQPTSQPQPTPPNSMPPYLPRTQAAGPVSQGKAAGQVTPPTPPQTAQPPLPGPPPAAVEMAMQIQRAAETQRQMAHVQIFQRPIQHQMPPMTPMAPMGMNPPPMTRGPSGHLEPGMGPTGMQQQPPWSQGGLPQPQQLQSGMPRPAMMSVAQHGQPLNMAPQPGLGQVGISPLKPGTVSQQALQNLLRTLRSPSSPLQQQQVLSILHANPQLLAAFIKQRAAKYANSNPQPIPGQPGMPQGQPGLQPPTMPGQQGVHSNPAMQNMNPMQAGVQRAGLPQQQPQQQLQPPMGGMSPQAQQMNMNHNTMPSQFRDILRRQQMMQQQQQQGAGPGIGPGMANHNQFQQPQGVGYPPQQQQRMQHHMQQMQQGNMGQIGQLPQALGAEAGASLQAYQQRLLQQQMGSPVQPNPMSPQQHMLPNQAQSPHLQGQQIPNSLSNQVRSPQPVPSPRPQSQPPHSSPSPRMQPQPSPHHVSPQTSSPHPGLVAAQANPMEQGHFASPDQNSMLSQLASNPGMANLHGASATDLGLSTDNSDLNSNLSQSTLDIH
T1 sequence (P42568 475-568): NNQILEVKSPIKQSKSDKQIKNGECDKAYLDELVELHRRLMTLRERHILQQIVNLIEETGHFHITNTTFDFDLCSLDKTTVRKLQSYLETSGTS

The term IC50 denotes the concentration that inhibits the measured activity by half. For orientation: EC50 means the concentration at which the effect is half-maximal. As for `CC(C)(C)c1ccc(-n2cc(C(=O)NC3CCNCC3)nc2-c2ccccc2)cc1` [Compound 1], the 50% inhibitory concentration (IC50) on AF9-AF4 interaction is 1.5 ± 0.2 µM; on ENL-AF4 interaction it was 0.9 µM and 0.94 µM; on ENL-AFF4 interaction, 3.3 ± 0.3 µM. Moreover, the “Inhibition of p300 histone acetyltransferase activity” value at p300 is on record as “did not significantly inhibit”. Moreover, the EC50 in the assay with HL60 cells came to 7.3 ± 0.1 µM; with Jurkat cells, 9.7 ± 0.3 µM; in the assay with Kasumi-1 cells, 8.9 ± 0.3 µM; in the assay with MV4;11 cells, 4.7 ± 0.4 µM; in the assay on Molm-13 cells (Homo sapiens, 168 h, 7-day incubation, read-out: Cytotoxicity EC50) it was 4.9 ± 0.1 µM; in the assay on RPMI-8226 cells, 3.3 ± 0.1 µM. In addition, the 50% effective concentration (EC50) with THP-1 cells was 11.4 ± 0.6 µM; in the assay with U266 cells it was 7.9 ± 0.4 µM. In the assay with Molm-13 cells (10 μM, Day-2 or 3), the “Inhibition of cell proliferation” value is recorded as “did not significantly inhibit”. Moreover, the inhibition at 10 µM with Molm-13 cells (Homo sapiens, 10 μM, Day-5, read-out: Inhibition of cell proliferation) was more than 90%. Also, the “MLL-AF9-bound DOT1L and AF4 (Co-IP)” value in [1] is “dose-dependent decrease of MLL-AF9-bound DOT1L and AF4”. Besides, in assay [2], the “Cytoplasmic protein levels of H3K79me1 and me2, ENL and AFF4” value was “did not significantly reduce”. Further, the “Cytoplasmic levels of H3K79me1 and me2, ENL and AFF4” value in assay [3] is given as “did not significantly reduce”. Besides, the “Cell phenotype by Giemsa staining” value in the assay with MLL-r leukemia cells was “more differentiated phenotype with reduced nucleus”.
